Reference: patent US8993622B2, “Antiviral compounds” (Eirium AB, priority 2010, dated 2015)
Read-outs that look alike come from different tables or passages of the source.

How the values were obtained:
Ad5 = test: microbe, parasite or virus in culture; assay type: cell-based, human adenovirus; settings: for EC50: A549; for inhibition at 5 µM: A549, read-out: % Inh. at 5 μM; for Inh. (% inhibition of Ad5 at 15 μM): Ad5, 15 μM (Table 2); for inhibition at 20 µM: A549, read-out: % Inh. at 20 μM; for effect on the replication of Ad5 (QPCR): A549 cells; for activity compared with A02 (inhibition of adenovirus replication): second generation inhibitors, Table 4
cells = test: Cellular toxicity of select compounds (% dead cells, CC50); assay type: cell-based
[1] = unidentified adenovirus, A549, read-out: % Inh. at 15 μM
[2] = Human adenovirus sp., A549, read-out: Inh. (% inhibition of Ad5 at 15 μM)

Work on `O=C(Nc1cc(Cl)ccc1C(=O)Nc1ccccc1C(=O)O)c1ccccc1F` [Compound 35f, 2-[4-chloro-2-(2-fluorobenzoylamino)-benzoylamino]benzoic acid] yielded an EC50 (Ad5; unidentified adenovirus) of 4140 nM, an inhibition at 5 µM (Ad5; unidentified adenovirus) of 57 ± 5% and an inhibition at 15 µM (Ad5; [1]) of 78 ± 2%. The “Toxicity at 30 μM (% dead cells after 24 h)” value (cells) was 14 ± 5% and the “Toxicity at 60 μM (% dead cells after 24 h)” value (cells) was 25 ± 8%.

`COc1ccc(C(=O)O)c(NC(=O)c2ccccc2NC(=O)c2ccccc2F)c1` [Compound 35c, 2-[2-(2-fluorobenzoylamino)-benzoylamino]-4-methoxybenzoic acid] gave an inhibition at 5 µM (Ad5; unidentified adenovirus) of 79 ± 21% and an inhibition at 15 µM (Ad5; [1]) of 95 ± 22%.

With `O=C(Nc1ccccc1C(=O)Nc1cc(Cl)ccc1C(=O)O)c1ccccc1F` [Compound 35a, 2-[2-(2-fluorobenzoylamino)-benzoylamino]-4-chlorobenzoic acid] the inhibition at 5 µM (Ad5; unidentified adenovirus) was 0% and the inhibition at 15 µM (Ad5; [1]) was 61%.

For `CCOC(=O)c1ccc(NC(=O)c2ccccc2NC(=O)c2ccccc2)cc1` [Compound 7b, Ethyl 4-[(2-benzoylamino)benzoylamino]-benzoate], the “Inh. (% inhibition of Ad5 at 15 μM)” value (Ad5) was 8%.

Compound `O=C(Nc1ccccc1C(=O)Nc1ccccc1C(=O)O)c1cccc(F)c1` [Compound 17i, 2-[2-(3-Fluorobenzoylamino)-benzoylamino]benzoic acid] has an inhibition at 5 µM (Ad5; unidentified adenovirus) of 41 ± 32% and an inhibition at 15 µM (Ad5; [1]) of 0%.

`Cc1ccc(C(=O)Nc2ccccc2C(=O)Nc2ccccc2C)cc1` [Compound 12g, 4-Methyl-N-{2-[(2-methylphenyl)carbamoyl]phenyl}-benzamide] showed an inhibition at 5 µM (Ad5; Human adenovirus sp.) of 24.5% and an inhibition at 20 µM (Ad5; Human adenovirus sp.) of 22.2%.

In the case of `COc1ccc(C(=O)Nc2ccccc2C(=O)Nc2ccccc2C(=O)O)cc1` [Compound 12f, 2-[[2-(4-Methoxy-benzoylamino)benzoyl]amino]-benzoic acid], the inhibition at 5 µM (Ad5; Human adenovirus sp.) is reported as 25.2% and the inhibition at 20 µM (Ad5; Human adenovirus sp.) is reported as 96.5%.

`O=C(Nc1ccc(C(=O)Nc2ccccc2C(=O)O)cc1)c1ccccc1` [Compound 8d, 2-[(4-benzoylamino)benzoylamino]-benzoic acid] gave an inhibition at 15 µM (Ad5; [2]) of 47%.

In the case of `O=C(Nc1ccccc1C(=O)Nc1ccccc1C(=O)O)c1ccc(F)cc1` [Compound 17j, 2-[2-(4-Fluorobenzoylamino)-benzoylamino]benzoic acid], the EC50 (Ad5; unidentified adenovirus) is reported as 3500 nM, the inhibition at 5 µM (Ad5; unidentified adenovirus) is reported as 76 ± 10% and the inhibition at 15 µM (Ad5; [1]) is reported as 95 ± 1%. For the same compound, the “Toxicity at 30 μM (% dead cells after 24 h)” value (cells) was 14 ± 10% and the “Toxicity at 60 μM (% dead cells after 24 h)” value (cells) was 10 ± 10%.

Compound `Cc1ccc(C(=O)Nc2ccccc2C(=O)Nc2ccccc2C(=O)O)cc1` [Compound 12c, 2-[[2-(4-Methyl-benzoylamino)benzoyl]amino]-benzoic acid] has an inhibition at 5 µM (Ad5; Human adenovirus sp.) of 89.2% and an inhibition at 20 µM (Ad5; Human adenovirus sp.) of 98.5%.

In the case of `O=C(Nc1ccccc1C(=O)Nc1ccccc1C(=O)Nc1ccccc1C(=O)O)c1ccccc1` [Compound A03, reference compound], the “effect on the replication of Ad5 (QPCR)” value (Ad5) is reported as “Neither the smaller (A01) nor the larger (A03) molecule showed any anti-adenoviral effect”.

`O=C(Nc1ccccc1C(=O)Nc1cc(F)c(F)cc1C(=O)O)c1ccccc1F` [Compound 35e, 2-[2-(2-fluorobenzoylamino)-benzoylamino]-4,5-difluorobenzoic acid] was tested, and the inhibition at 5 µM (Ad5; unidentified adenovirus) was 0% and the inhibition at 15 µM (Ad5; [1]) was 0%.

In the case of `O=C(Nc1ccccc1C(=O)Nc1ccccc1C(=O)O)c1ccccc1F` [Compound 17h, 2-[2-(2-Fluorobenzoylamino)-benzoylamino]benzoic acid], the “activity compared with A02 (inhibition of adenovirus replication)” value (Ad5) is reported as “statistically significantly higher activity than A02”, the EC50 (Ad5; unidentified adenovirus) is reported as 2300 nM and the inhibition at 5 µM (Ad5; unidentified adenovirus) is reported as 96 ± 1%. For the same compound, the inhibition at 15 µM (Ad5; [1]) was 96 ± 1%, the “Toxicity at 30 μM (% dead cells after 24 h)” value (cells) was 17 ± 9% and the “Toxicity at 60 μM (% dead cells after 24 h)” value (cells) was 29 ± 12%. For the same compound, the “cellular toxicity compared with A02” value (cells; Table 7) was “slightly more toxic than A02”.

With `O=C(O)Cc1ccccc1NC(=O)c1ccccc1NC(=O)c1ccccc1` [Compound 23, 2-[2-(benzoylamino)benzoylamino]phenylacetic acid] the inhibition at 5 µM (Ad5; unidentified adenovirus) was 0% and the inhibition at 15 µM (Ad5; [1]) was 0%.

In the case of `O=C(Nc1cccc(C(=O)Nc2ccccc2C(=O)O)c1)c1ccccc1` [Compound 8c, 2-[(3-benzoylamino)benzoylamino]-benzoic acid], the “Inh. (% inhibition of Ad5 at 15 μM)” value (Ad5) is reported as 39%.

With `O=C(O)c1cccc(NC(=O)c2ccccc2NC(=O)c2ccccc2)c1` [Compound 8a, 3-[(2-benzoylamino)benzoylamino]-benzoic acid] the “Inh. (% inhibition of Ad5 at 15 μM)” value (Ad5) was 8%.

Work on `O=C(Nc1ccccc1C(=O)Nc1ccccc1)c1ccccc1` [Compound 11, 2-Benzoylamino-N-phenyl-benzamide] yielded an inhibition at 15 µM (Ad5; [2]) of 18%.

`Cc1ccccc1C(=O)Nc1cccc(C(=O)Nc2ccccc2C(=O)O)c1` [Compound 12e, 2-[[3-(2-Methyl-benzoylamino)benzoyl]amino]-benzoic acid] gave an inhibition at 5 µM (Ad5; Human adenovirus sp.) of 44% and an inhibition at 20 µM (Ad5; Human adenovirus sp.) of 55.8%.

For `O=C(O)c1ccc(NC(=O)c2ccccc2NC(=O)c2ccccc2)cc1` [Compound 8b, 4-[(2-benzoylamino)benzoylamino]-benzoic acid], the “Inh. (% inhibition of Ad5 at 15 μM)” value (Ad5) was 8%.

`CCOC(=O)c1ccccc1NC(=O)c1ccc(NC(=O)c2ccccc2)cc1` [Compound 7d, Ethyl 2-[(4-benzoylamino)benzoylamino]-benzoate] was tested, and the “Inh. (% inhibition of Ad5 at 15 μM)” value (Ad5) was 15%.

In the case of `O=C(O)c1ccccc1NC(=O)c1ccccc1NCc1ccccc1` [Compound 17g, 2-[2-(Benzylamino)benzoylamino]benzoic acid], the “activity compared with A02 (inhibition of adenovirus replication)” value (Ad5) is reported as “diminished but not abolished activity”, the EC50 (Ad5; unidentified adenovirus) is reported as 11400 nM and the inhibition at 5 µM (Ad5; unidentified adenovirus) is reported as 44 ± 17%. For the same compound, the inhibition at 15 µM (Ad5; [1]) was 79 ± 5%, the “Toxicity at 30 μM (% dead cells after 24 h)” value (cells) was 6 ± 10% and the “Toxicity at 60 μM (% dead cells after 24 h)” value (cells) was 11 ± 13%.

`O=C(Cc1ccccc1NC(=O)c1ccccc1)Nc1ccccc1C(=O)O` [Compound 28, 2-[2-(benzoylamino)phenylacetylamino]benzoic acid] was tested, and the inhibition at 5 µM (Ad5; unidentified adenovirus) was 0% and the inhibition at 15 µM (Ad5; [1]) was 0%.

`CS(=O)(=O)Nc1ccccc1C(=O)Nc1ccccc1C(=O)O` [Compound 17b, 2-[2-(Methanesulfonylamino)benzoylamino]benzoic acid] showed an inhibition at 5 µM (Ad5; unidentified adenovirus) of 0% and an inhibition at 15 µM (Ad5; [1]) of 23 ± 12%.

For `O=C(O)c1ccccc1NC(=O)c1ccccc1NC(=O)C1CCCCC1` [Compound 17e, 2-[[2-(Cyclohexanecarboxylamino)benzoyl]amino]benzoic acid], the “activity compared with A02 (inhibition of adenovirus replication)” value (Ad5) was “diminished but not abolished activity”, the inhibition at 5 µM (Ad5; unidentified adenovirus) was 20 ± 1% and the inhibition at 15 µM (Ad5; [1]) was 55 ± 11%.

With `O=C(Nc1ccccc1C(=O)O)c1ccccc1` [Compound A01, reference compound] the “effect on the replication of Ad5 (QPCR)” value (Ad5) was “Neither the smaller (A01) nor the larger (A03) molecule showed any anti-adenoviral effect”.

`COc1ccc(C(=O)Nc2ccccc2C(=O)O)c(NC(=O)c2ccccc2F)c1` [Compound 35h, 2-[4-methoxy-2-(2-fluorobenzoylamino)-benzoylamino]benzoic acid] was tested, and the EC50 (Ad5; unidentified adenovirus) was 1500 nM, the inhibition at 5 µM (Ad5; unidentified adenovirus) was 92 ± 3% and the inhibition at 15 µM (Ad5; [1]) was 89 ± 6%. The “Toxicity at 30 μM (% dead cells after 24 h)” value (cells) was 10 ± 15% and the “Toxicity at 60 μM (% dead cells after 24 h)” value (cells) was 18 ± 15%.

For `O=C(Nc1ccccc1C(=O)Nc1ccc(Cl)cc1C(=O)O)c1ccccc1F` [Compound 35b, 2-[2-(2-fluorobenzoylamino)benzoylamino]-5-chlorobenzoic acid], the inhibition at 5 µM (Ad5; unidentified adenovirus) was 0% and the inhibition at 15 µM (Ad5; [1]) was 0%.

Work on `COc1ccc(NC(=O)c2ccccc2NC(=O)c2ccccc2F)c(C(=O)O)c1` [Compound 35d, 2-[2-(2-fluorobenzoylamino)-benzoylamino]-5-methoxybenzoic acid] yielded an inhibition at 5 µM (Ad5; unidentified adenovirus) of 28 ± 20% and an inhibition at 15 µM (Ad5; [1]) of 78 ± 3%.

`O=C(Cc1ccccc1)Nc1ccccc1C(=O)Nc1ccccc1C(=O)O` [Compound 17k, 2-[2-(Phenylacetylamino)benzoylamino]benzoic acid] gave an inhibition at 5 µM (Ad5; unidentified adenovirus) of 32 ± 19% and an inhibition at 15 µM (Ad5; [1]) of 21 ± 12%.

In the case of `O=C(O)CCC(=O)Nc1ccccc1C(=O)Nc1ccccc1C(=O)O` [Compound 17f, 2-[2-(4-Carboxybutanoylamido)benzoyl]aminobenzoic acid], the inhibition at 5 µM (Ad5; unidentified adenovirus) is reported as 0% and the inhibition at 15 µM (Ad5; [1]) is reported as 0%.

Compound `CC(=O)Nc1ccccc1C(=O)Nc1ccccc1C(=O)O` [Compound 17a, 2-[2-(Acetylamino)benzoylamino]benzoic acid] has an inhibition at 5 µM (Ad5; unidentified adenovirus) of 4 ± 11% and an inhibition at 15 µM (Ad5; [1]) of 24 ± 14%.

With `O=C(Nc1ccc(Cl)cc1C(=O)Nc1ccccc1C(=O)O)c1ccccc1F` [Compound 35g, 2-[5-chloro-2-(2-fluorobenzoylamino)-benzoylamino]benzoic acid] the EC50 (Ad5; unidentified adenovirus) was 680 nM, the inhibition at 5 µM (Ad5; unidentified adenovirus) was 89 ± 2% and the inhibition at 15 µM (Ad5; [1]) was 91 ± 2%. For the same compound, the “Toxicity at 30 μM (% dead cells after 24 h)” value (cells) was 11 ± 7% and the “Toxicity at 60 μM (% dead cells after 24 h)” value (cells) was 24 ± 9%.

`CC(C)(C)C(=O)Nc1ccccc1C(=O)Nc1ccccc1C(=O)O` [Compound 17d, 2-[2-(Trimethylacetylamino)benzoylamino]benzoic acid] showed an inhibition at 5 µM (Ad5; unidentified adenovirus) of 45 ± 7% and an inhibition at 15 µM (Ad5; [1]) of 52 ± 18%.

In the case of `CCOC(=O)c1cccc(NC(=O)c2ccccc2NC(=O)c2ccccc2)c1` [Compound 7a, 4-Ethyl 3-[(2-benzoylamino)benzoylamino]-benzoate], the inhibition at 15 µM (Ad5; [2]) is reported as 0%.

`NC(=O)c1ccccc1NC(=O)c1cccc(NC(=O)c2ccccc2)c1` [Compound 12d, 2-[[3-(Benzoylamino)benzoyl]amino]-benzamide] gave an inhibition at 5 µM (Ad5; Human adenovirus sp.) of 51.1% and an inhibition at 20 µM (Ad5; Human adenovirus sp.) of 44.2%.

Compound `Cc1ccc(S(=O)(=O)Nc2ccccc2C(=O)Nc2ccccc2C(=O)O)cc1` [Compound 17c, 2-[2-(p-Toluenesulfonylamino)benzoylamino]benzoic acid] has an inhibition at 5 µM (Ad5; unidentified adenovirus) of 2 ± 24% and an inhibition at 15 µM (Ad5; [1]) of 8 ± 35%.

Work on `COc1ccc(NC(=O)c2ccccc2F)c(C(=O)Nc2ccccc2C(=O)O)c1` [Compound 35i, 2-[5-methoxy-2-(2-fluorobenzoylamino)-benzoylamino]benzoic acid] yielded an EC50 (Ad5; unidentified adenovirus) of 1400 nM, an inhibition at 5 µM (Ad5; unidentified adenovirus) of 91 ± 6% and an inhibition at 15 µM (Ad5; [1]) of 97 ± 1%. The “Toxicity at 30 μM (% dead cells after 24 h)” value (cells) was 18 ± 12% and the “Toxicity at 60 μM (% dead cells after 24 h)” value (cells) was 28 ± 12%.

`CCOC(=O)c1ccccc1NC(=O)c1cccc(NC(=O)c2ccccc2)c1` [Compound 7c, Ethyl 2-[(3-benzoylamino)benzoylamino]-benzoate] was tested, and the “Inh. (% inhibition of Ad5 at 15 μM)” value (Ad5) was 25%.
